Target: human Factor XIa (Homo sapiens (Human), UniProt P03951)
Test: Factor XIa Assay
Type: biochemical
Conditions: purified human Factor XIa 40 pM, Z-Gly-Pro-Arg-AFC 100 μM, pH 7.4; read-out: FXIa Ki
Procedure: The effectiveness of a compound of the present invention as an inhibitor of Coagulation Factor XIa can be determined using a relevant purified serine protease, and an appropriate synthetic substrate. The rate of hydrolysis of the chromogenic or fluorogenic substrate by the relevant serine protease was measured both in the absence and presence of compounds of the present invention. Assays were conducted at room temperature or at 37° C. […] A decrease in the rate of fluorescence change in the presence of inhibitor is indicative of enzyme inhibition. Such methods are known to one skilled in the art. The results of this assay are expressed as the inhibitory constant, Ki.
Factor XIa determinations were made in 50 mM HEPES buffer at pH 7.4 containing 150 mM NaCl, 5 mM CaCl2, and 0.1% PEG 8000 (polyethylene glycol; JT Baker or Fisher Scientific). Determinations were made using purified human Factor XIa at a final concentration of 40 pM (Sekisui Diagnostics) and he synthetic substrate, Z-Gly-Pro-Arg-AFC, TFA salt (Sigma #C0980) at a concentration of 100 μM.
Times required to achieve equilibration between enzyme and inhibitor were determined in control experiments. Initial velocities of product formation in the absence (Vo) or presence of inhibitor (Vi) were measured. Assuming competitive inhibition, and that unity is negligible compared Km/[S], [I]/e, and [I]/e (where [S], [I], and e respectively represent the total concentrations, of substrate, inhibitor and enzyme), the equilibrium constant (Ki) for dissociation of the inhibitor from the enzyme can be obtained from the dependence of Vo/Vi on [I] shown in the following equation.

Sequence of human Factor XIa (P03951 388-625): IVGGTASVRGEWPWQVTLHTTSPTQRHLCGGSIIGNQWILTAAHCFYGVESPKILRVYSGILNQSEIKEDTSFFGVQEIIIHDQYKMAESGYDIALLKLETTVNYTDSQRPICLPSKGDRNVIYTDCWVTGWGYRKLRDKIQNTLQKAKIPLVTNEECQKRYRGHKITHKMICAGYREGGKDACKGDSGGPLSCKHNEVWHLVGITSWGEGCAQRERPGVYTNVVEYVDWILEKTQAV
Sequence of human Factor XIa (P03951 19-387 partner): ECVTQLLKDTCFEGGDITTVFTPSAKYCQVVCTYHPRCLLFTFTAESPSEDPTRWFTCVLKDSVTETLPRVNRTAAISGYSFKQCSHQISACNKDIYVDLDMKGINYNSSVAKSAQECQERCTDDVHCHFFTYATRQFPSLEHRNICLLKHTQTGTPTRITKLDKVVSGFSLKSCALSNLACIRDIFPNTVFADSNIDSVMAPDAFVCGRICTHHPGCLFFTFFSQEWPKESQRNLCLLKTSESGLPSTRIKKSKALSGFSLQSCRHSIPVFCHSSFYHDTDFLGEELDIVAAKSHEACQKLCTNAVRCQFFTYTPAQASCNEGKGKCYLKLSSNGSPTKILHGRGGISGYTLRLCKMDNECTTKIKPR

Ki [nM] | SMILES
57.4 | COC(=O)Nc1ccc(C(=O)N[C@@H](CC(=O)Nc2ccccn2)C(=O)N2CC[C@@]3(C2)OC(=O)Nc2ccc(Cl)cc23)cc1 [Example 90, methyl (4-(((S)-1-((R)-6-chloro-2-oxo-1,2-dihydrospiro[benzo[d][1,3]oxazine-4,3′-pyrrolidin]-1′-yl)-1,4-dioxo-4-(pyridin-2-ylamino)butan-2-yl)carbamoyl)phenyl)carbamate]
144 | COC(=O)Nc1ccc(C(=O)N[C@@H](CC(=O)Nc2ccc(F)cc2)C(=O)N2CC[C@@]3(C2)OC(=O)Nc2ccc(Cl)cc23)cc1 [Example 91, methyl (4-(((S)-1-((R)-6-chloro-2-oxo-1,2-dihydrospiro[benzo[d][1,3]oxazine-4,3′-pyrrolidin]-1′-yl)-4-((4-fluorophenyl)amino)-1,4-dioxobutan-2-yl)carbamoyl)phenyl)carbamate]
56.1 | COC(=O)Nc1ccc(C(=O)N[C@@H](CC(=O)NS(=O)(=O)C2CC2)C(=O)N2CC[C@@]3(C2)OC(=O)Nc2ccc(Cl)cc23)cc1 [Example 92, methyl (4-(((S)-1-((R)-6-chloro-2-oxo-1,2-dihydrospiro[benzo[d][1,3]oxazine-4,3′-pyrrolidin]-1′-yl)-4-(cyclopropanesulfonamido)-1,4-dioxobutan-2-yl)carbamoyl)phenyl)carbamate]
45.8 | COC(=O)Nc1ccc(C(=O)N[C@@H](CC(=O)NC2COC2)C(=O)N2CC[C@@]3(C2)OC(=O)Nc2ccc(Cl)cc23)cc1 [Example 93, methyl (4-(((S)-1-((R)-6-chloro-2-oxo-1,2-dihydrospiro[benzo[d][1,3]oxazine-4,3′-pyrrolidin]-1′-yl)-4-(oxetan-3-ylamino)-1,4-dioxobutan-2-yl)carbamoyl)phenyl)carbamate]
203 | COC(=O)Nc1ccc(C(=O)N[C@@H](CC(=O)N2CC(N(C)C)C2)C(=O)N2CCC[C@@]3(C2)OC(=O)Nc2ccc(Cl)cc23)cc1 [Example 96, methyl (4-(((S)-1-((R)-6-chloro-2-oxo-1,2-dihydrospiro[benzo[d][1,3]oxazine-4,3′-piperidin]-1′-yl)-4-(3-(dimethylamino)azetidin-1-yl)-1,4-dioxobutan-2-yl)carbamoyl)phenyl)carbamate]
52 | COC(=O)Nc1ccc(C(=O)N[C@@H](CCF)C(=O)N2CCC[C@@]3(C2)OC(=O)Nc2ccc(Cl)cc23)cc1 [Example 103, methyl (4-(((S)-1-((R)-6-chloro-2-oxo-1,2-dihydrospiro[benzo[d][1,3]oxazine-4,3′-piperidin]-1′-yl)-4-fluoro-1-oxobutan-2-yl)carbamoyl)phenyl)carbamate]
16.8 | COC(=O)Nc1ccc(C(=O)N[C@@H](CC2CCC(F)(F)CC2)C(=O)N2CCC[C@@]3(C2)OC(=O)Nc2ccc(Cl)cc23)cc1 [Example 106, methyl (4-(((S)-1-((R)-6-chloro-2-oxo-1,2-dihydrospiro[benzo[d][1,3]oxazine-4,3′-piperidin]-1′-yl)-3-(4,4-difluorocyclohexyl)-1-oxopropan-2-yl)carbamoyl)phenyl)carbamate]
50.7 | COC(=O)Nc1ccc(C(=O)N[C@@H](CCNC(=O)C2CCC2)C(=O)N2CCC[C@@]3(C2)OC(=O)Nc2ccc(Cl)cc23)cc1 [Example 107, methyl (4-(((S)-1-((R)-6-chloro-2-oxo-1,2-dihydrospiro[benzo[d][1,3]oxazine-4,3′-piperidin]-1′-yl)-4-(cyclobutanecarboxamido)-1-oxobutan-2-yl)carbamoyl)phenyl)carbamate]
219 | COC(=O)Nc1ccc(C(=O)N[C@@H](CCN2CCC2)C(=O)N2CC[C@@]3(C2)OC(=O)Nc2ccc(Cl)cc23)cc1 [Example 112, methyl (4-(((S)-4-(azetidin-1-yl)-1-((R)-6-chloro-2-oxo-1,2-dihydrospiro[benzo[d][1,3]oxazine-4,3′-pyrrolidin]-1′-yl)-1-oxobutan-2-yl)carbamoyl)phenyl)carbamate]
15.6 | O=C1Nc2ccc(Cl)c(F)c2[C@@]2(CCCN(C(=O)[C@H](Cc3cncnc3)NC(=O)c3ccc4[nH]c(=O)ccc4c3)C2)O1 [Example 113, N-((S)-1-((R)-6-chloro-5-fluoro-2-oxo-1,2-dihydrospiro[benzo[d][1,3]oxazine-4,3′-piperidin]-1′-yl)-1-oxo-3-(pyrimidin-5-yl)propan-2-yl)-2-oxo-1,2-dihydroquinoline-6-carboxamide]
74.4 | O=C1Nc2ccc(Cl)c(F)c2[C@@]2(CCCN(C(=O)[C@H](Cc3cnccn3)NC(=O)c3ccc4[nH]c(=O)ccc4c3)C2)O1 [Example 114, N-((S)-1-((R)-6-chloro-5-fluoro-2-oxo-1,2-dihydrospiro[benzo[d][1,3]oxazine-4,3′-piperidin]-1′-yl)-1-oxo-3-(pyrazin-2-yl)propan-2-yl)-2-oxo-1,2-dihydroquinoline-6-carboxamide]
≥ 5000 | O=C1Nc2ccc(Cl)cc2[C@]2(CCN(C(=O)[C@@H](Cc3ccccc3)C(=O)Nc3ccc(C(=O)O)cc3)C2)O1 [Example 121a, 4-((S)-2-benzyl-3-((S)-6-chloro-2-oxo-1,2-dihydrospiro[benzo[d][1,3]oxazine-4,3′-pyrrolidin]-1′-yl)-3-oxopropanamido)benzoic acid]

The next lines start with the molecule.

SMILES | Ki [nM]
COC(=O)Nc1ccc(C(=O)N[C@@H](Cc2c[nH]c3ccccc23)C(=O)N2CCC[C@@]3(C2)OC(=O)Nc2ccc(Cl)c(F)c23)cc1 [Example 70, methyl (4-(((S)-1-((R)-6-chloro-5-fluoro-2-oxo-1,2-dihydrospiro[benzo[d][1,3]oxazine-4,3′-piperidin]-1′-yl)-3-(1H-indol-3-yl)-1-oxopropan-2-yl)carbamoyl)phenyl)carbamate] | 20.7
COC(=O)Nc1ccc(C(=O)N[C@@H](CC2CCC2)C(=O)N2CCC[C@@]3(C2)OC(=O)Nc2ccc(Cl)cc23)cc1 [Example 71, methyl (4-(((S)-1-((R)-6-chloro-2-oxo-1,2-dihydrospiro[benzo[d][1,3]oxazine-4,3′-piperidin]-1′-yl)-3-cyclobutyl-1-oxopropan-2-yl)carbamoyl)phenyl)carbamate] | 50.9
COC(=O)Nc1ccc(C(=O)N[C@@H](CC2CCCC2)C(=O)N2CCC[C@@]3(C2)OC(=O)Nc2ccc(Cl)cc23)cc1 [Example 73, methyl (4-(((S)-1-((R)-6-chloro-2-oxo-1,2-dihydrospiro[benzo[d][1,3]oxazine-4,3′-piperidin]-1′-yl)-3-cyclopentyl-1-oxopropan-2-yl)carbamoyl)phenyl)carbamate] | 32
COC/C=C/c1ccc(C[C@H](NC(=O)c2ccc(NC(=O)OC)cc2)C(=O)N2CC[C@@]3(C2)OC(=O)Nc2ccc(Cl)cc23)cc1 [Example 80, methyl (4-(((S)-1-((R)-6-chloro-2-oxo-1,2-dihydrospiro[benzo[d][1,3]oxazine-4,3′-pyrrolidin]-1′-yl)-3-(4-((E)-3-methoxyprop-1-en-1-yl)phenyl)-1-oxopropan-2-yl)carbamoyl)phenyl)carbamate] | 75
COC(=O)Nc1ccc(C(=O)N[C@@H](CC(=O)N2CC(F)(F)C2)C(=O)N2CCC[C@@]3(C2)OC(=O)Nc2ccc(Cl)cc23)cc1 [Example 85, methyl (4-(((S)-1-((R)-6-chloro-2-oxo-1,2-dihydrospiro[benzo[d][1,3]oxazine-4,3′-piperidin]-1′-yl)-4-(3,3-difluoroazetidin-1-yl)-1,4-dioxobutan-2-yl)carbamoyl)phenyl)carbamate] | 33.3
COC(=O)Nc1ccc(C(=O)N[C@@H](CC(=O)NC2CCC2)C(=O)N2CCC[C@@]3(C2)OC(=O)Nc2ccc(Cl)cc23)cc1 [Example 86, methyl (4-(((S)-1-((R)-6-chloro-2-oxo-1,2-dihydrospiro[benzo[d][1,3]oxazine-4,3′-piperidin]-1′-yl)-4-(cyclobutylamino)-1,4-dioxobutan-2-yl)carbamoyl)phenyl)carbamate] | 33.7
COC(=O)Nc1ccc(C(=O)N[C@@H](CC(=O)N2CCOCC2)C(=O)N2CC[C@@]3(C2)OC(=O)Nc2ccc(Cl)cc23)cc1 [Example 88, methyl (4-(((S)-1-((R)-6-chloro-2-oxo-1,2-dihydrospiro[benzo[d][1,3]oxazine-4,3′-pyrrolidin]-1′-yl)-4-morpholino-1,4-dioxobutan-2-yl)carbamoyl)phenyl)carbamate] | 20
COC(=O)Nc1ccc(C(=O)N[C@@H](CC(=O)NC2CCOCC2)C(=O)N2CC[C@@]3(C2)OC(=O)Nc2ccc(Cl)cc23)cc1 [Example 89, methyl (4-(((S)-1-((R)-6-chloro-2-oxo-1,2-dihydrospiro[benzo[d][1,3]oxazine-4,3′-pyrrolidin]-1′-yl)-1,4-dioxo-4-((tetrahydro-2H-pyran-4-yl)amino)butan-2-yl)carbamoyl)phenyl)carbamate] | 59.2
COC(=O)Nc1ccc(C(=O)N[C@@H](CCNC(=O)OC2CCC2)C(=O)N2CCC[C@@]3(C2)OC(=O)Nc2ccc(Cl)cc23)cc1 [Example 109, methyl (4-(((S)-1-((R)-6-chloro-2-oxo-1,2-dihydrospiro[benzo[d][1,3]oxazine-4,3′-piperidin]-1′-yl)-4-((cyclobutoxycarbonyl)amino)-1-oxobutan-2-yl)carbamoyl)phenyl)carbamate] | 48.3

Source: patent US10093683B2, “Factor XIa inhibitors” (Merck Sharp & Dohme Corp., priority 2014, dated 2018)
